Laboratory results from PMC10089316, “Adeno-Associated virus 8 delivers an immunomodulatory peptide to mouse liver more efficiently than to rat liver” (PLOS ONE, 2023).

Key:
Kv1.3 = conditions: cited from earlier work
Text: (§1) The voltage-gated Kv1.3 potassium channel has gained interest as a therapeutic target for obesity, as mice lacking Kv1.3 or treated with a Kv1.3 blocker are protected from high-fat diet (HFD)-induced obesity. Kv1.3 is also a target for autoimmune diseases, as […] (CCR7)^- effector memory T (TEM) lymphocytes express high levels of Kv1.3 upon activation and blocking of Kv1.3 inhibits their function. […] However, S ...

[1] = system: other Kv1.x channels and the KCa3.1 channel; conditions: cited from earlier work
Text: as §1

mKv1.3 channels = biological target: T1, mKv1.3 channels (Mus musculus, UniProt P16390); experiment: whole-cell patch-clamp block of mKv1.3 by synthetic ShK-235; assay type: cell-based; conditions: Port-a-Patch, L929 fibroblasts stably expressing mKv1.3, 200 ms pulses −80 to 40 mV, 20–25°C, pH 7.4, N = 3 cells per concentration, mean ± SEM, read-out: IC50 for Kv1.3 block
T1 construct: expressed in transfected cells
T1 sequence (P16390 whole entry): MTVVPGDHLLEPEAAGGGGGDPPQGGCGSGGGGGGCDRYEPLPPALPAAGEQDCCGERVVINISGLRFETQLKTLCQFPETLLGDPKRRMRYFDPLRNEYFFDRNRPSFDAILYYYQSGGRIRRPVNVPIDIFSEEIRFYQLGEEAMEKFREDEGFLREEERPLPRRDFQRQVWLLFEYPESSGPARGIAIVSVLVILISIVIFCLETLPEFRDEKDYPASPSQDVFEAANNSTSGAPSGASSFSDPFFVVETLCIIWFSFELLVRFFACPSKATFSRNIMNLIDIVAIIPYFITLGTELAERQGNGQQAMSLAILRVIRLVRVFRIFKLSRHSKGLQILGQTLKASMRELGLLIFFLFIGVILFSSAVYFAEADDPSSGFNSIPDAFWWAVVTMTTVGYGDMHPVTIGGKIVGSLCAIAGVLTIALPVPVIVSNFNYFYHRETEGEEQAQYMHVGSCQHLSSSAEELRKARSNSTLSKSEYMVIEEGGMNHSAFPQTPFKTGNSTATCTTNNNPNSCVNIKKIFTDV
Method: Mouse L929 fibroblasts stably expressing mKv1.3 channels were a kind gift from Dr. Chandy (Nanyang Technological University, Singapore). They were maintained in Dulbecco’s modified Eagle’s medium (DMEM) supplemented with 10% heat-inactivated fetal bovine serum (FBS), 4 mM L-glutamine, 1 mM sodium pyruvate, and 500 μg/mL G418 (Calbiochem/EMD Millipore, Billerica, MA) and cultured to 60~70% confluence.
Patch clamp assays were conducted at room temperature (20–25°C) in the whole-cell configuration using a Port-a-Patch system (Nanion Technologies, Livingston, NJ) connected to a HEKA EPC10-USB amplifier controlled with the PatchMaster software (HEKA, Germany). The external solution contained 1 mM MgCl2, 160 mM NaCl, 4.5 mM KCl, 2 mM CaCl2, and 10 mM Hepes; pH was adjusted to 7.4 with NaOH. […]
The stock of synthetic ShK-235, the supernatants of transfected HEK293T cells, and the rodent serum samples were diluted in the external solution immediately before use and tested in triplicates without any further processing. Peak Kv1.3 currents were recorded before addition of the samples and after reaching steady-state block and results were analyzed using IGOR Pro software (WaveMetrics, Portland, OR) and the IC50 of channel block was calculated by nonlinear regression using Prism software (GraphPad Software, San Diego, CA).

[2] = cited from earlier work
Text: All constructs contain both ShK-235 and EGFP.

In the case of “ShK: small peptide produced by the sea anemone Stichodactyla helianthus, one of the most potent blockers of Kv1.3 (RSCIDTIPKSRCTAFKCKHSIKYRLSFCRKTCGTCA)”, the IC50 (Kv1.3) is listed as 0.01 nM and the “block of other Kv1.x channels and KCa3.1” value [1] is listed as “in the pM to low nM range”.
For `CC[C@H](C)[C@@H]1NC(=O)[C@H](CO)NC(=O)[C@H](Cc2c[nH]cn2)NC(=O)[C@H](CCCCN)NC(=O)[C@@H]2CSSC[C@@H]3NC(=O)[C@H]([C@@H](C)O)NC(=O)[C@H](CCCCN)NC(=O)[C@H](CCCNC(=N)N)NC(=O)[C@H](CSSC[C@H](NC(=O)[C@H](CCCNC(=N)N)NC(=O)[C@H](CO)NC(=O)[C@H](CCCCN)NC(=O)[C@@H]4CCCN4C(=O)[C@H]([C@@H](C)CC)NC(=O)[C@H]([C@@H](C)O)NC(=O)[C@H](CC(=O)O)NC(=O)[C@H]([C@@H](C)CC)NC(=O)[C@@H](NC(=O)[C@H](CO)NC(=O)[C@@H](N)CCCNC(=N)N)CSSC[C@@H](C(=O)N[C@@H](C)C(=O)O)NC(=O)[C@H]([C@@H](C)O)NC(=O)CNC3=O)C(=O)N[C@@H]([C@@H](C)O)C(=O)N[C@@H](C)C(=O)N[C@@H](Cc3ccccc3)C(=O)N[C@@H](CCCCN)C(=O)N2)NC(=O)[C@H](Cc2ccccc2)NC(=O)[C@H](CO)NC(=O)[C@H](CC(C)C)NC(=O)[C@H](CCCNC(=N)N)NC(=O)[C@H](Cc2ccc(O)cc2)NC(=O)[C@H](CCCCN)NC1=O` [ShK-235], the IC50 (mKv1.3 channels) is listed as 0.0709 ± 0.0219 nM and the immunogenicity [2] is listed as “not immunogenic”.
